From ChEMBL document CHEMBL4308920, “Optimizing the Pharmacological Profile of New Bifunctional Antihyperlipidemic/Antioxidant Morpholine Derivatives” (ACS Med Chem Lett, 2019)

Columns and labels:
Squalene synthase [1] = biological target: T1, Squalene synthase (Rattus norvegicus, UniProt Q02769); assay: Inhibition of SQS in rat liver microsomes assessed as reduction in [3H]FPP conversion to squalene preincubated for 10 mins followed by [3H]FPP addition and measured after 10 mins by scintillation counting method
T1 sequence (Q02769 whole entry): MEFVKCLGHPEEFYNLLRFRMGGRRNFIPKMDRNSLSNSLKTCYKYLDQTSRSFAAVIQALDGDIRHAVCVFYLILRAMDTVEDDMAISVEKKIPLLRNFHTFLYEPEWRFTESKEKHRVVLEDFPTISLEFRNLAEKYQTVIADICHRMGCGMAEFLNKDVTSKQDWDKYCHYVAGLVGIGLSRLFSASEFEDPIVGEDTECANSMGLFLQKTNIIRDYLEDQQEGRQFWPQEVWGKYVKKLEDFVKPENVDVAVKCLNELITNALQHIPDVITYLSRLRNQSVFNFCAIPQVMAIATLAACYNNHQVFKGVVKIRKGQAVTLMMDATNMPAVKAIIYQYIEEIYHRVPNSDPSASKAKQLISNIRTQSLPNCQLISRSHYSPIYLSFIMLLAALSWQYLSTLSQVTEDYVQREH

Liver = assay: Antioxidant activity in rat hepatic microsomes assessed as reduction in ferrous salt/ascorbic acid-induced lipid peroxidation of membrane lipids by measuring TBARS level after 45 mins by spectrophotometric method; type: functional, Microsome; conditions: 0.75 h
Mus musculus [2] = assay: In vivo antioxidant activity in C57BL/6 mouse model of Triton WR1339-induced hyperlipidemia assessed as increase in total antioxidant capacity in plasma at 84 umol/kg, ip measured after 24 hrs relative to control; type: functional
Mus musculus [3] = assay: Anti-inflammatory activity in C57BL/6 mouse assessed as inhibition of carrageenan-induced hind paw edema at 300 umol/kg, ip treated immediately after carrageenan challenge measured after 3.5 hrs relative to control; type: functional; conditions: C57BL/6, ip
[4] = biological target: T2, Squalene synthase (Rattus norvegicus) (UniProt Q02769); assay: Potency index, ratio of 2-(biphenyl-4-yl)-4-methylmorpholin-2-ol hydrobromide IC50 to compound IC50 for inhibition of SQS in rat liver microsomes
T2 sequence (whole entry): T1 sequence (Q02769 whole entry)

[5] = biological target: T2, Squalene synthase (Rattus norvegicus); assay: Potency index, ratio of 4-methyl-2-(4-(naphthalen-2-yl)phenyl)morpholin-2-ol hydrobromide IC50 to compound IC50 for inhibition of SQS in rat liver microsomes
Mus musculus [6] = assay: Antihyperlipidemic activity in C57BL/6 mouse model of Triton WR1339-induced hyperlipidemia assessed as reduction in plasma total triglyceride level at 84 umol/kg, ip measured after 24 hrs relative to control; type: functional; set-up: scale not given: the % may be the effect or the level left
Mus musculus [7] = assay: Antihypercholesterolemic activity in C57BL/6 mouse model of Triton WR1339-induced hyperlipidemia assessed as reduction in plasma total cholesterol level at 84 umol/kg, ip measured after 24 hrs relative to control; type: functional; set-up: scale not given: the % may be the effect or the level left
[8] = biological target: T2, Squalene synthase (Rattus norvegicus); assay: Potency index, ratio of 2-(4-(6-methoxynaphthalen-2-yl)phenyl)-4-methylmorpholin-2-ol hydrobromide IC50 to compound IC50 for inhibition of SQS in rat liver microsomes
Squalene synthase [9] = biological target: T1, Squalene synthase; assay: Inhibition of SQS in rat liver microsomes assessed as reduction in [3H]FPP conversion to squalene after 45 mins by liquid scintillation counting method

Q: Which IC50 (Squalene synthase [1]) does the source give for `CN1CCOC(OCCCO)(c2ccc(-c3ccc4ccccc4c3)cc2)C1` (centres undefined) here?
A: The IC50 was 6.2 µM.

Q: And the IC50 (Liver)?
A: The IC50 was 259 µM.

Q: For `CN1CC(c2ccc(-c3ccccc3)cc2)OC2CCCCC21` (centres undefined), which IC50 (Squalene synthase [1]) is on record?
A: Its IC50 is 20.8 µM.

Q: And the IC50 (Liver)?
A: Its IC50 is 218 µM.

Q: What does the source list for `CN1C=C(c2ccc(-c3ccccc3)cc2)OC2CCCCC21` (centres undefined)?
A: IC50 (Squalene synthase [1]): 42 µM; IC50 (Liver): 65.1 µM

Q: How did the IC50 (Squalene synthase [1]) turn out when `COc1ccc2cc(-c3ccc(C4(OCCCO)CN(C)CCO4)cc3)ccc2c1` (centres undefined) was run?
A: The IC50 was 29.4 µM.

Q: And the IC50 (Liver)?
A: Its IC50 is 211 µM.

Q: Which IC50 (Squalene synthase [1]) does the source give for `COc1ccc2cc(-c3ccc(C4(OCCCO[N+](=O)[O-])CN(C)CCO4)cc3)ccc2c1` (centres undefined) here?
A: The IC50 was 16.1 µM.

Q: What about the IC50 (Liver) of the same compound?
A: Its IC50 is 45 µM.

Q: What does the source list for `CN1CCOC(c2ccc(-c3ccccc3)cc2)C1` (centres undefined)?
A: IC50 (Squalene synthase [1]): > 100 µM; IC50 (Liver): 86.8 µM

Q: Which IC50 (Squalene synthase [1]) does the source give for `CN1CCSC(c2ccc(-c3ccccc3)cc2)C1` (centres undefined) here?
A: The IC50 was 15 µM.

Q: And the IC50 (Liver)?
A: The IC50 was 299 µM.

Q: What does the source list for `Br.CN1CCOC(OCCCS)(c2ccc(-c3ccc4ccccc4c3)cc2)C1` (centres undefined)?
A: IC50 (Squalene synthase [1]): 0.014 µM; TAC (Mus musculus [2]): 20%; inhibition in vivo at 300 µmol/kg (Mus musculus [3]): 40%; IC50 (Liver): 198 µM; Ratio IC50 [4]: < 136; Ratio IC50 [5]: < 136; Activity (Mus musculus [6]): 25%; Activity (Mus musculus [7]): 67%; Ratio IC50 [8]: < 136

Q: How did the IC50 (Liver) turn out when `CC(C)(Sc1cc(C(C)(C)C)c(O)c(C(C)(C)C)c1)Sc1cc(C(C)(C)C)c(O)c(C(C)(C)C)c1` [PROBUCOL] was run?
A: Its IC50 is over 500 µM.

Q: Which results are given for `c1ccc(-c2ccc(C3CN4CCCCC4CO3)cc2)cc1` (centres undefined)?
A: IC50 (Squalene synthase [1]): 7.5 µM; IC50 (Liver): 179 µM

Q: Which IC50 (Liver) does the source give for `Cc1c(C)c2c(c(C)c1O)CCC(C)(C(=O)O)O2` (centres undefined) [TROLOX] here?
A: Its IC50 is 25 µM.

Q: How did the IC50 (Squalene synthase [1]) turn out when `CN1CCOC(OCCCO[N+](=O)[O-])(c2ccc(-c3ccc4ccccc4c3)cc2)C1` (centres undefined) was run?
A: Its IC50 is 0.51 µM.

Q: And the IC50 (Liver)?
A: Its IC50 is 75.8 µM.

Q: With `COc1ccc2cc(-c3ccc(C4(OCCCS)CN(C)CCO4)cc3)ccc2c1` (centres undefined) as the compound, how does the IC50 (Squalene synthase [1]) read?
A: Its IC50 is 0.16 µM.

Q: And the IC50 (Liver)?
A: The IC50 was 147 µM.

Q: And the Ratio IC50 [4]?
A: The Ratio IC50 was under 136.

Q: And the Ratio IC50 [5]?
A: The Ratio IC50 was under 136.

Q: What about the Ratio IC50 [8] of the same compound?
A: The Ratio IC50 was under 136.

Q: How did the IC50 (Squalene synthase [1]) turn out when `CN1CCOC(OCCCS)(c2ccc(-c3ccccc3)cc2)C1` (centres undefined) was run?
A: The IC50 was 2.7 µM.

Q: And the IC50 (Liver)?
A: Its IC50 is 372 µM.

Q: What about the Ratio IC50 [4] of the same compound?
A: The Ratio IC50 was under 136.

Q: And the Ratio IC50 [5]?
A: Its Ratio IC50 is under 136.

Q: What about the Ratio IC50 [8] of the same compound?
A: The Ratio IC50 was under 136.

Q: With `COc1cccc([C@H]2O[C@H](CC(=O)N3CCC(CC(=O)O)CC3)C(=O)N(CC(C)(C)COC(C)=O)c3ccc(Cl)cc32)c1OC` [LAPAQUISTAT ACETATE] as the compound, how does the IC50 (Squalene synthase [9]) read?
A: The IC50 was 0.078 µM.

Q: Which results are given for `CN1CCOC(OCCCO)(c2ccc(-c3ccccc3)cc2)C1` (centres undefined)?
A: IC50 (Squalene synthase [1]): 24.9 µM; IC50 (Liver): 333 µM

Q: `CN1CCSC(c2ccc3ccccc3c2)C1` (centres undefined) was tested. Which IC50 (Squalene synthase [1]) did it give?
A: Its IC50 is 25.2 µM.

Q: And the IC50 (Liver)?
A: Its IC50 is 178 µM.
